Earlier results in PMC12308805, “Ultrahigh-Throughput Virtual Screening Strategies against PPI Targets: A Case Study of STAT Inhibitors” (Journal of Chemical Information and Modeling, 2025).
Square brackets hold non-standard residues; d marks the D form. Peptide text beside a SMILES is read from it. * marks the point of attachment. pY = N[C@@H](Cc1ccc(OP(=O)(O)O)cc1)C(=O)O; X1 = O=C(c1cc2cc(OP(=O)(O)O)ccc2[nH]1)*; Bz = O=C(c1ccccc1)*

System: STAT3
Settings: cited from earlier work

Row | SMILES | Type (known STAT3 active)
1 | CC(=O)N[C@@H](Cc1ccc(OP(=O)(O)O)cc1)C(=O)N[C@H]1CCc2cccc3c2N(C1=O)[C@H](C(=O)N[C@@H](CCC(N)=O)C(=O)N[C@H](C(N)=O)[C@@H](C)O)C3 [CHEMBL503765] | Active
2 | CC(C)C[C@H](NC(=O)c1cc2cc(OP(=O)(O)O)ccc2[nH]1)C(=O)N1CCC[C@H]1C(=O)N[C@@H](CCC(N)=O)C(=O)N[C@H](C(N)=O)[C@@H](C)O [CHEMBL485921] (X1-LPQT-NH2) | Active
3 | CC(=O)N[C@@H](Cc1ccc(OP(=O)(O)O)cc1)C(=O)N[C@@H](CC(C)C)C(=O)N1CCC[C@H]1C(=O)N[C@H](CCC(N)=O)C(=O)N[C@@H](C(N)=O)[C@H](C)O [CHEMBL160353] (Ac-[pY]LP[dQ][dT]-NH2) | Active

Same assay, conditions: sheet 6QHD_actives_decoys, retrospective screening set for STAT3 SH2 domain (PDB 6QHD); decoys are presumed inactives, not tested; ref DUD-E; cited from earlier work

Row | SMILES | Type
4 | CC/C=C\C/C=C\C/C=C\CCCCCCCC(=O)OC[C@@H](O)CO[C@H]1O[C@@H](CO[C@H]2O[C@@H](CO)[C@H](O)[C@@H](O)[C@@H]2O)[C@@H](O)[C@@H](O)[C@@H]1O [Decoy758] | Inactive (Decoy)
5 | CCOC(=O)c1sc(NC(=O)CSc2n[nH]c(N/N=C/c3ccc(C)cc3)n2)c(C#N)c1C [Decoy916] | Inactive (Decoy)
6 | O=C(O)C[C@H](NS(=O)(=O)c1cc(S(=O)(=O)N[C@@H](CC(=O)O)c2ccccc2)c2cccc3c2c1NC3=O)c1ccccc1 [Decoy893] | Inactive (Decoy)
7 | COC(=O)c1sc2cc(SCC(=O)Nc3cc(OC)c(OC)c(OC)c3)ccc2c1/N=C(\O)C(F)(F)F [Decoy807] | Inactive (Decoy)
8 | COc1ccccc1OCCNC[C@@H](O)Cn1c2ccccc2c2c(OC[C@@H](O)CNCCOc3ccccc3OC)cccc21 [Decoy936] | Inactive (Decoy)
9 | Cc1nnc(/N=C(\O)CSc2nnc(NN=C(Cc3ccccc3)Cc3ccccc3)n2N)s1 [Decoy811] | Inactive (Decoy)
10 | CCc1ccc2[nH]c(=O)c(CN(CCc3ccc(OC)c(OC)c3)Cc3nnnn3Cc3ccccc3)cc2c1 [Decoy770] | Inactive (Decoy)
11 | COc1cc(-c2nnc(SCC(=O)N/N=C/c3cc(OC)c(OC(C)=O)c(OC)c3)n2-c2ccccc2)cc(OC)c1OC [Decoy928] | Inactive (Decoy)
12 | CC(C)(O)[C@@H](O)CC[C@@H](CO)[C@H]1CC[C@]2(C)C3=C(C[C@H](O)[C@@]12C)[C@@]1(C)C[C@H](O)[C@H](OC(=O)C[C@](C)(O)CC(=O)NCC(=O)O)C(C)(C)[C@H]1CC3 [Decoy836] | Inactive (Decoy)
13 | C[C@@]1(c2cc3ccccc3o2)NC(=O)N(CC(=O)Nc2cccc(S(=O)(=O)N3CCCC3)c2)C1=O [Decoy779] | Inactive (Decoy)
14 | CCOC(=O)c1ccc(NC(=O)c2cc([N+](=O)[O-])ccc2NC(=O)CNCc2ccc3c(c2)OCO3)cc1 [Decoy729] | Inactive (Decoy)
15 | Cc1ccc(S(=O)(=O)NCCc2nnc(NC(=O)CSCc3ccc([N+](=O)[O-])cc3)s2)cc1 [Decoy939] | Inactive (Decoy)
16 | CCN(CC)c1ccc(/C=N/Nc2nc(SCC(=O)n3nc(C)cc3C)n[nH]2)c(O)c1 [Decoy937] | Inactive (Decoy)
17 | C[C@H](N[C@H](C)c1ccc(Cl)s1)c1ccc(Cl)c(Cl)c1Cl [Decoy730] | Inactive (Decoy)
18 | COc1ccc(NC(=O)CSc2nnc(NC(=O)c3cc(OC)c(OC)c(OC)c3)s2)cc1OC [Decoy923] | Inactive (Decoy)
19 | COc1cc(-c2ccc(/N=N/c3ccc4c(S(=O)(=O)O)cc(S(=O)(=O)O)c(N)c4c3O)c(OC)c2)ccc1/N=N\c1c(O)ccc2ccccc12 [Decoy851] | Inactive (Decoy)
20 | CC[C@@]1(c2ccccc2)NC(=O)N(CC(=O)NNC(=O)CCN2CCN(c3ccccc3)CC2)C1=O [Decoy766] | Inactive (Decoy)

Same assay, conditions: sheet 6QHD_actives_decoys; known STAT3 actives of the retrospective screening set; ref ChEMBL / literature; cited from earlier work

Row | SMILES | Type (known STAT3 active)
21 | NC(=O)CC[C@H](NC(=O)[C@@H]1Cc2cccc3c2N1C(=O)[C@@H](NC(=O)/C=C/c1ccc(OP(=O)(O)O)cc1)CC3)C(=O)O [CHEMBL510008] | Active
22 | CC(C)C[C@H](NC(=O)[C@H](Cc1ccc(OP(=O)(O)O)cc1)NC(=O)c1ccccc1)C(=O)N1CCC[C@H]1C(=O)N[C@@H](CCC(N)=O)C(=O)N[C@H](C(N)=O)[C@@H](C)O [CHEMBL425571] (Bz-[pY]LPQT-NH2) | Active

Same assay, conditions: sheet 6QHD_actives_decoys; retrospective screening set for STAT3 SH2 domain (PDB 6QHD); […]; ref DUD-E; cited from earlier work

Row | SMILES | Type
23 | COc1ccc(NS(=O)(=O)c2cccc(NS(=O)(=O)c3cccc([N+](=O)[O-])c3)c2)cc1 [Decoy709] | Inactive (Decoy)
24 | CCOC(=O)C1=C(SC)S[C@@H](/C(C(=O)OCC)=C2/NN=C(c3ccccc3)O2)N=C1N [Decoy644] | Inactive (Decoy)
25 | C=C(CO[C@H]1O[C@@H](CO[C@H]2OC[C@@H](O)[C@@H](O)[C@H]2O)[C@@H](O)[C@@H](O)[C@H]1O)[C@H]1Cc2c(ccc3c2O[C@@H]2COc4cc(OC)c(OC)cc4[C@H]2C3=O)O1 [Decoy686] | Inactive (Decoy)
26 | C=C1[C@@H](O)[C@@H]2O[C@]3(CC[C@@H]2O[C@@H]1[C@@H](O)C[C@H](C)[C@H]1O[C@@]2(CCCCO2)CC[C@H]1C)CC[C@H](/C=C/[C@@H](C)[C@H]1CC(C)=C[C@@]2(O[C@@H](C[C@@](C)(O)C(=O)O)CC[C@H]2O)O1)O3 [Decoy484] | Inactive (Decoy)
27 | COc1ccccc1NS(=O)(=O)c1cccc(C(=O)NNC(=O)c2cc3ccccc3[nH]c2=O)c1 [Decoy693] | Inactive (Decoy)
28 | Cc1ccc(NC(=O)CCC(=O)NNC(=O)CCCCC(=O)NNC(=O)CCC(=O)Nc2ccc(C)c(C)c2)cc1C [Decoy444] | Inactive (Decoy)
29 | COc1ccc(NC(=O)c2cc(C)nc3c2c(C)nn3C)cc1NS(=O)(=O)c1ccc(F)cc1 [Decoy619] | Inactive (Decoy)

Same assay, conditions: sheet 6QHD_actives_decoys; retrospective screening set for STAT3 SH2 domain (PDB 6QHD); decoys generated with DUD-E and presumed inactive, not tested; ref DUD-E; cited from earlier work

Row | SMILES | Type
30 | Cc1ccc(S(=O)(=O)NNc2ncnc(NNC(=O)c3ccccc3)c2[N+](=O)[O-])cc1 [Decoy575] | Inactive (Decoy)
31 | COc1cc(NS(=O)(=O)c2ccc(NC(=O)c3cccc(COc4cccc(Cl)c4)c3)cc2)nc(OC)n1 [Decoy485] | Inactive (Decoy)
32 | O=C(CCCCCNC(=O)CCCC[C@H]1SC[C@H]2NC(=O)N[C@@H]21)NC/C=C/c1cn([C@@H]2O[C@@H](CO[P@](=O)(O)O[P@](=O)(O)OP(=O)(O)O)[C@@H](O)[C@H]2O)c(=O)nc1O [Decoy440] | Inactive (Decoy)
33 | CCOC(=O)Cn1nnnc1[C@@H](CC)N(CCc1cccc(C)c1)Cc1cc2cc(OCC)ccc2[nH]c1=O [Decoy609] | Inactive (Decoy)
34 | OCCN(CCO)C1=N[C@@H]2C(N3CCCCC3)=NC(N(CCO)CCO)=N[C@@H]2C(N2CCCCC2)=N1 [Decoy648] | Inactive (Decoy)
35 | CC(=O)O[C@H]1[C@@H](O)[C@@H](O[C@@H](/C=N/c2ccc3c(c2)C(=O)NC3=O)[C@@H](CO)O[C@H](O)/C=N/c2ccc3c(c2)C(=O)NC3=O)O[C@@H](CO)[C@H]1O [Decoy463] | Inactive (Decoy)
36 | CC(=O)N[C@@H]1[C@@H](OC(C)=O)[C@H](OC(C)=O)[C@@H](COC(C)=O)O[C@H]1Sc1nnc(COc2ccccc2C)n1C1CCCC1 [Decoy405] | Inactive (Decoy)
37 | COc1ccc([C@H]2Oc3c(OC)cc(CCCO)cc3[C@@H]2CO)cc1O[C@@H]1O[C@@H](CO)[C@@H](O)[C@@H](O)[C@@H]1O [Decoy527] | Inactive (Decoy)
38 | CCCCCN(C(=O)Cn1c(=O)n(CC)c(=O)c2ccccc21)c1c(N)n(CCCC)c(=O)[nH]c1=O [Decoy603] | Inactive (Decoy)
39 | OC[C@@H](O)CN(C[C@H](O)CO)c1ccc(Cc2ccc(N(C[C@H](O)CO)C[C@@H](O)CO)cc2)cc1 [Decoy620] | Inactive (Decoy)
40 | CCOc1ccc(NC(=O)CSC2=C(C#N)[C@H](c3ccco3)C(C(=O)Nc3ccc(OC)cc3)=C(C)N2)cc1 [Decoy721] | Inactive (Decoy)
41 | O=C[C@H](O)[C@@H](O)[C@H](O)[C@@H](CO)O[P@](=O)(OC[C@H]1O[C@@H](n2ccc(=O)[nH]c2=O)[C@H](O)[C@@H]1O)OP(=O)(O)O [Decoy701] | Inactive (Decoy)
42 | CCOC(=O)c1c(NC(=O)CSc2nnc(CNC(=O)c3ccco3)n2C)sc2c1CCC2 [Decoy722] | Inactive (Decoy)
43 | COc1ccc2[nH]cc(CCN/C(=N\C(=O)CS[C@H]3N=N[C@@H](N)S3)Nc3nc(C)cc(C)n3)c2c1 [Decoy359] | Inactive (Decoy)
44 | CCOC(=O)C(Sc1nc(N)c(NC(=O)c2ccc(Br)o2)c(=O)[nH]1)C(=O)OCC [Decoy673] | Inactive (Decoy)
45 | COC(=O)c1sc(NC(=O)CCCS(=O)(=O)c2nc(-c3ccccc3OC)cc(C(F)(F)F)n2)c(C(N)=O)c1C [Decoy427] | Inactive (Decoy)
46 | Nn1c(N/N=C/c2c(O)ccc3ccccc23)nnc1SCCC(=O)Nc1ccc2c(c1)C(=O)NC2=O [Decoy439] | Inactive (Decoy)
47 | CCN[C@@H](c1ccc(I)cc1)c1ccc(OC)c(Br)c1 [Decoy431] | Inactive (Decoy)
48 | CCOC(=O)c1ccc(NC(=O)CSc2nc3cc(C(=O)OC)ccc3c(=O)n2CCN2CCOCC2)cc1 [Decoy371] | Inactive (Decoy)
49 | CCOC(=O)c1[nH]c(C)c(C(=O)C2=C(O)C(=O)N(CCCN(C)C)[C@@H]2c2cc(OC)c(OC)c(OC)c2)c1C [Decoy593] | Inactive (Decoy)
50 | CCCc1nc(C(C)(C)O[C@@H]2O[C@H](C(=O)O)[C@@H](O)[C@H](O)[C@H]2O)c(C(=O)O)n1Cc1ccc(-c2ccccc2-c2nnn[nH]2)cc1 [Decoy521] | Inactive (Decoy)
51 | C=CCn1c(CNc2ccc(Cl)cc2)nnc1S[C@@H](C)C(=O)N/N=C/c1ccc([N+](=O)[O-])s1 [Decoy574] | Inactive (Decoy)
52 | C=CCn1c(CCCN2C(=O)c3cccc4cccc(c34)C2=O)nnc1SCC(=O)Nc1ccc(S(N)(=O)=O)cc1 [Decoy601] | Inactive (Decoy)
53 | CNC(=O)Cn1c(=O)[nH]c(NC)c(C(c2ccc(Cl)cc2)c2c(NC)[nH]c(=O)n(CC(=O)NC)c2=O)c1=O [Decoy363] | Inactive (Decoy)
54 | CCN(CC)c1ccc(C(=O)OCC(=O)Nc2cccc(S(=O)(=O)/N=C3\CCCCCN3)c2)cc1 [Decoy504] | Inactive (Decoy)
55 | COC(=O)CCSCCO[C@@H]1O[C@H](CO)[C@@H](O[C@@H]2O[C@H](CO)[C@@H](O)[C@@H](O)[C@H]2O)[C@H](O)[C@@H]1NC(C)=O [Decoy353] | Inactive (Decoy)
